# Data published in PubChem BioAssay AID1259411 (Chemical Carcinogenesis Research Information System (CCRIS), 2018).
# Calls of active or inactive are those of the source. No rule for the calls is given here.
# System: rodent carcinogenicity bioassays, tumor incidence
# Test: CCRIS carcinogenicity studies
# Method in brief: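 NCI-built, expert-reviewed records of carcinogenicity and related test outcomes (mutagenicity, tumor promotion/inhibition) compiled from published and report sources, historical span 1985-2011, not updated.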
smiles,measurement,setting,value
O=[N+]([O-])c1cc2cccc3ccc4cccc1c4c32,carcinogen call,"Species: RAT, Strain/Sex: STRAIN-CD/FEMALE, Route: INJECTION, Dose: 0, 0.1 ML IN 20.3 UMOL/ML DMSO INJECTED INTO MAMMARY TISSUE OF THE 3 LEFT THORACIC NIPPLES FOLLOWED THE NEXT D BY SIMILA, Tumor Site: Type of Lesion: MAMMARY GLAND: FIBROADENOMA, ADENOCARCINOMA",active; positive
same,carcinogen call,"Species: RAT, Strain/Sex: STRAIN-CD/FEMALE, Route: INJECTION, Dose: 0, 0.1 ML OF A 20.3 UMOL/ML SOLUTION IN DMSO INJECTED INTO MAMMARY TISSUE UNDERLYING 3 LEFT THORACIC NIPPLES THE FOLLOWI, Tumor Site: Type of Lesion: MAMMARY GLAND: FIBROADENOMA",active; positive
same,carcinogen call,"Species: RAT, Strain/Sex: STRAIN-CD/FEMALE, Route: INTRAPERITONEAL, Dose: 0, 67 UMOL/KG BW IN DMSO 3/WK FOR 4 WK (STUDY DURATION: 61 WK), Tumor Site: Type of Lesion: MAMMARY GLAND: ADENOCARCINOMA",active; positive
same,carcinogen call,"Species: RAT, Strain/Sex: STRAIN-CD/FEMALE, Route: INTRAPERITONEAL, Dose: 0, 67 UMOL/KG/BW IN 25 UMOL/ML DMSO 3/WK FOR 4 WK (TOTAL DOSE: 0; 119 UMOL) ADMINISTERED TO WEANLING RATS (STUDY DURATIO, Dose: 0, 67 UMOL/KG/BW IN 25 UMOL/ML DMSO 3/WK FOR 4 WK (TOTAL DOSE: 0; 119 UMOL) ADMINISTERED TO WEANLING RATS (STUDY DURATIO, Tumor Site: Type of Lesion: MAMMARY GLAND: ADENOCARCINOMA",active; positive
same,carcinogen call,"Species: RAT, Strain/Sex: STRAIN-CD/FEMALE, Route: SUBCUTANEOUS, Dose: 0, 75 UMOL (TOTAL DOSE) ADMINISTERED OVER 8 WK BEGINNING WITHIN 24 HR OF BIRTH (STUDY DURATION: 86 WK), Tumor Site: Type of Lesion: MAMMARY GLAND: TUMOR, INTEGUMENTARY SYSTEM: MALIGNANT FIBROUS HISTIOCYTOMA, HEMATOPOIETIC SYSTEM: LEUKEMIA, ZYMBAL GLAND, Tumor Site: Type of Lesion: MAMMARY GLAND: TUMOR, INTEGUMENTARY SYSTEM: MALIGNANT FIBROUS HISTIOCYTOMA, HEMATOPOIETIC SYSTEM: LEUKEMIA, ZYMBAL GLAND",active; positive
c1ccc2c(c1)ccc1cc3ccc4ccccc4c3cc12,carcinogen call,"Species: MOUSE, Strain/Sex: SWISS/FEMALE, Route: DERMAL, Dose: 0, 78 UG IN ACETONE (0.4%) 2/WK FOR 60 WK FOR A TOTAL DOSE OF 0, 9.4 MG (STUDY DURATION: 80 WK), Dose: 0, 78 UG IN ACETONE (0.4%) 2/WK FOR 60 WK FOR A TOTAL DOSE OF 0, 9.4 MG (STUDY DURATION: 80 WK), Tumor Site: Type of Lesion: SKIN: CARCINOMA",active; positive
CCCC1O[C@@H]2C[C@H]3[C@@H]4CCC5=CC(=O)C=C[C@]5(C)[C@H]4[C@@H](O)C[C@]3(C)[C@]2(C(=O)CO)O1 (some centres not stated),carcinogen call,"Species: RAT, Strain/Sex: SPRAGUE-DAWLEY/MALE, Route: ORAL, Dose: 0, 5 UG/ML IN DRINKING WATER FOR AN AVERAGE DAILY DOSE OF 46.6 UG/KG FOR 104 WK (STUDY DURATION: 104 WK), Tumor Site: Type of Lesion: LIVER: HEPATOCELLULAR ADENOMA OR CARCINOMA",active; positive
COc1cc(C(C)(C)C)c(O)c(C(C)(C)C)c1,carcinogen call,"Species: HAMSTER, Strain/Sex: SYRIAN/MALE, Route: ORAL, Dose: 1% IN DIET FOR 24 WK (STUDY DURATION: 24 WK)",inactive; negative
S=C(NC1CCCCC1)NC1CCCCC1,carcinogen call,"Species: MOUSE, Strain/Sex: B6C3F1/FEMALE, Route: ORAL, Dose: 0, 25000, 50000 PPM IN DIET, Dose: 0, 25000, 50000 PPM IN DIET",inactive; negative
same,carcinogen call,"Species: MOUSE, Strain/Sex: B6C3F1/MALE, Route: ORAL, Dose: 0, 25000, 50000 PPM IN DIET, Dose: 0, 25000, 50000 PPM IN DIET",inactive; negative
same,carcinogen call,"Species: RAT, Strain/Sex: F344/FEMALE, Route: ORAL, Dose: 0, 25000, 50000 PPM IN DIET, Dose: 0, 25000, 50000 PPM IN DIET",inactive; negative
same,carcinogen call,"Species: RAT, Strain/Sex: F344/MALE, Route: ORAL, Dose: 0, 25000, 50000 PPM IN DIET, Dose: 0, 25000, 50000 PPM IN DIET",inactive; negative
CC(C)=NO,carcinogen call,"Species: RAT, Strain/Sex: WISTAR/MALE, Route: ORAL, Dose: 1.0 G/L IN DRINKING WATER 5/WK FOR 18 MO, Tumor Site: Type of Lesion: LIVER: HEPATOCELLULAR ADENOMA",active; positive
O=C1OC2(c3ccccc31)c1cc(I)c(O)c(I)c1Oc1c2cc(I)c(O)c1I,carcinogen call,"Species: MOUSE, Strain/Sex: CD-1/FEMALE, Route: ORAL, Dose: 0, 0.3, 1.0, 3.0% IN DIET FOR 24 MO (STUDY DURATION: 24 MO), Dose: 0, 0.3, 1.0, 3.0% IN DIET FOR 24 MO (STUDY DURATION: 24 MO)",inactive; negative
same,carcinogen call,"Species: MOUSE, Strain/Sex: CD-1/MALE, Route: ORAL, Dose: 0, 0.3, 1.0, 3.0% IN DIET FOR 24 MO (STUDY DURATION: 24 MO), Dose: 0, 0.3, 1.0, 3.0% IN DIET FOR 24 MO (STUDY DURATION: 24 MO)",inactive; negative
same,carcinogen call,"Species: MOUSE, Strain/Sex: ICR/FEMALE, Route: DERMAL, Dose: 0, 1 MG IN 0.1 ML DISTILLED WATER 2/WK FOR A MEAN TOTAL DOSE OF 133 MG (STUDY DURATION: 18 MO)",inactive; negative
same,carcinogen call,"Species: MOUSE, Strain/Sex: ICR/MALE, Route: DERMAL, Dose: 0, 1 MG IN 0.1 ML DISTILLED WATER 2/WK FOR A MEAN TOTAL DOSE OF 133 MG (STUDY DURATION: 18 MO)",inactive; negative
same,carcinogen call,"Species: RAT, Strain/Sex: CD-1/FEMALE, Route: ORAL, Dose: 0, 0.1, 0.5, 1% IN DIET FOR 30 MO BEGINNING IN UTERO WITH PARENTS GIVEN THE SAME DIETARY DOSES (STUDY DURATION: 30 MO), Dose: 0, 0.1, 0.5, 1% IN DIET FOR 30 MO BEGINNING IN UTERO WITH PARENTS GIVEN THE SAME DIETARY DOSES (STUDY DURATION: 30 MO)",inactive; negative
same,carcinogen call,"Species: RAT, Strain/Sex: CD-1/FEMALE, Route: ORAL, Dose: 0, 4% IN DIET FOR 30 MO BEGINNING IN UTERO WITH PARENTS GIVEN THE SAME DIETARY DOSES (STUDY DURATION: 30 MO)",inactive; negative
same,carcinogen call,"Species: RAT, Strain/Sex: CD-1/MALE, Route: ORAL, Dose: 0, 0.1, 0.5, 1% IN DIET FOR 30 MO BEGINNING IN UTERO WITH PARENTS GIVEN THE SAME DIETARY DOSES (STUDY DURATION: 30 MO), Dose: 0, 0.1, 0.5, 1% IN DIET FOR 30 MO BEGINNING IN UTERO WITH PARENTS GIVEN THE SAME DIETARY DOSES (STUDY DURATION: 30 MO)",inactive; negative
same,carcinogen call,"Species: RAT, Strain/Sex: CD-1/MALE, Route: ORAL, Dose: 0, 4% IN DIET FOR 30 MO BEGINNING IN UTERO WITH PARENTS GIVEN THE SAME DIETARY DOSES (STUDY DURATION: 30 MO), Tumor Site: Type of Lesion: THYROID: ADENOMA",active; positive
Brc1cc(Br)c2cccnc2c1,carcinogen call,"Species: RAT, Strain/Sex: F344/FEMALE, Route: ORAL, Dose: 0.1% IN DIET FOR 2 YR",inactive; negative
CC(=O)N(O[C@@H]1O[C@H](C(=O)O)[C@@H](O)[C@H](O)[C@H]1O)c1ccc2c(c1)Cc1ccccc1-2,carcinogen call,"Species: RAT, Strain/Sex: F344/MALE, Route: INJECTION, Dose: 0, 1 UMOL IN 0.5 ML OF SOLUTION CONTAINING 0.4 ML PHOSPHATE BUFFERED SALINE/ GENTAMYCIN (PH 7) AND 0.1 ML DMSO INJECTED",inactive; negative
same,carcinogen call,"Species: RAT, Strain/Sex: F344/MALE, Route: INJECTION, Dose: 0, 1 UMOL IN 0.5 ML OF SOLUTION CONTAINING 0.4 ML PHOSPHATE BUFFERED SALINE/ GENTAMYCIN (PH 8) AND 0.1 ML DMSO INJECTED",inactive; negative
CNC(=O)ON=CC(C)(C)SC,carcinogen call,"Species: MOUSE, Strain/Sex: B6C3F1/FEMALE, Route: ORAL, Dose: 0, 2, 6 PPM IN DIET, Dose: 0, 2, 6 PPM IN DIET",inactive; negative
same,carcinogen call,"Species: MOUSE, Strain/Sex: B6C3F1/MALE, Route: ORAL, Dose: 0, 2, 6 PPM IN DIET, Dose: 0, 2, 6 PPM IN DIET",inactive; negative
same,carcinogen call,"Species: RAT, Strain/Sex: F344/FEMALE, Route: ORAL, Dose: 0, 2, 6 PPM IN DIET, Dose: 0, 2, 6 PPM IN DIET",inactive; negative
same,carcinogen call,"Species: RAT, Strain/Sex: F344/MALE, Route: ORAL, Dose: 0, 2, 6 PPM IN DIET, Dose: 0, 2, 6 PPM IN DIET",inactive; negative
ClCc1ccccn1,carcinogen call,"Species: MOUSE, Strain/Sex: B6C3F1/FEMALE, Route: GAVAGE, Dose: 0, 125, 250 MG/KG IN AQ SOLN, Dose: 0, 125, 250 MG/KG IN AQ SOLN",inactive; negative
same,carcinogen call,"Species: MOUSE, Strain/Sex: B6C3F1/MALE, Route: GAVAGE, Dose: 0, 125, 250 MG/KG IN AQ SOLN, Dose: 0, 125, 250 MG/KG IN AQ SOLN",inactive; negative
same,carcinogen call,"Species: RAT, Strain/Sex: F344/FEMALE, Route: GAVAGE, Dose: 0, 75, 150 MG/KG IN AQ SOLN, Dose: 0, 75, 150 MG/KG IN AQ SOLN",inactive; negative
same,carcinogen call,"Species: RAT, Strain/Sex: F344/MALE, Route: GAVAGE, Dose: 0, 75, 150 MG/KG IN AQ SOLN, Dose: 0, 75, 150 MG/KG IN AQ SOLN",inactive; negative
